pIC50: −log10 of the molar value.

This is an account of results in US20170037028A1 (BAYER PHARMA AKTIENGESELLSCHAFT, priority 2013, published 2017).

This test concerns the target T1, GLUT1 (Homo sapiens, UniProt P11166).
T1 sequence (P11166 1-492): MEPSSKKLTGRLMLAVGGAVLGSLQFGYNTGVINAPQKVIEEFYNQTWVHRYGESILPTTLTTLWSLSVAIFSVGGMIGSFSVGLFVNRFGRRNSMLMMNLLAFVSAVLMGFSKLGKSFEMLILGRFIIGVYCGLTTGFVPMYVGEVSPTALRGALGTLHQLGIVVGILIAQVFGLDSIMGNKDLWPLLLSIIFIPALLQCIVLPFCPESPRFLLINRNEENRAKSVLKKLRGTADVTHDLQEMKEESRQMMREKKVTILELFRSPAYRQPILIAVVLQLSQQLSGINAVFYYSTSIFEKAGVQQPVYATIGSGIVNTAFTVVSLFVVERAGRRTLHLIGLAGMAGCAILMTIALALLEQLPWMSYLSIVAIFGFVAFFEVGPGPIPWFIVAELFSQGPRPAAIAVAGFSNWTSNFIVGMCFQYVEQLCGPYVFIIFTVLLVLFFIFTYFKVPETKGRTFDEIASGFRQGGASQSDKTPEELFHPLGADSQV
Description: Indirect measurement of GLUT1 activity by quantification of intracellular ATP levels (glucose induced ATP increase). More on the design: endogenous in cells; host or cells: DLD1 or CHO-K1. Type of test: cell-based. As to conditions: read-out: IC50 regarding glucose induced ATP increase (GLUT1 inhibition). A digest of the protocol:
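DLD1 or CHO-K1 cells were starved overnight in glucose-free medium with 1% FCS, then combined with an oxidative phosphorylation inhibitor. GLUT1 activity was read as glucose-induced ATP increase, GLUT2 as fructose-induced. Intracellular ATP was quantified by CellTiter-Glo luminescence.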
What is called pIC50 is the negative decadic logarithm of the IC50, by convention in mol/L. Consider `Cc1c(NC(=O)c2cc(C(N)=O)nc3cc(F)c(Cl)cc23)c(C(F)(F)F)nn1Cc1cccc(C(N)=O)c1` [Example 1603], for which the pIC50 was 8.24.
Regarding `Cc1nn(Cc2cccc(C#N)n2)c(C)c1NC(=O)c1cc(C(N)=O)nc2ccccc12` [Example 1708], the pIC50 was 6.83.
As for `Cc1c(NC(=O)c2cc(C(N)=O)nc3cccc(F)c23)c(C(F)(F)F)nn1Cc1cccc(C#N)n1` [Example 1688], the figure is 7.06; as for `Cc1nn(Cc2ccc(F)cc2)c(C)c1NC(=O)c1ccnc2ccc(Br)cc12` [Example 184, 6-bromo-N-[1-(4-fluorobenzyl)-3,5-dimethyl-1H-pyrazol-4-yl]quinoline-4-carboxamide], 6.96; as for `Cc1nn(Cc2ncco2)c(C)c1NC(=O)c1cc(C(N)=O)nc2ccccc12` [Example 1504], 7.37.
To `Cc1nn(Cc2ccc(F)cc2)c(C)c1NC(=O)c1cc(C(F)(F)F)nc2ccc(F)cc12` [Example 30, 6-fluoro-N-[1-(4-fluorobenzyl)-3,5-dimethyl-1H-pyrazol-4-yl]-2-(trifluoromethyl)quinoline-4-carboxamide] belongs 7.71; to `Cc1ccc2nc(C)cc(C(=O)Nc3c(C)nn(Cc4cccnc4)c3C)c2c1` [Example 208, N-[3,5-dimethyl-1-(pyridin-3-ylmethyl)-1H-pyrazol-4-yl]-2,6-dimethylquinoline-4-carboxamide], 6.13; to `Cc1nn(CC2CCN(S(=O)(=O)C(C)C)CC2)c(C)c1NC(=O)c1cc(C(N)=O)nc2ccccc12` [Example 1517], 7.01.
Regarding `Cc1nn(Cc2ccc(F)cc2)c(C)c1NC(=O)c1cc(C(F)(F)F)nc2c(C#N)cccc12` [Example 1268], the pIC50 was 5.55.
To `COc1ccc(Cn2nc(C(F)(F)F)c(NC(=O)c3cc(OC)nc4ccccc34)c2C)cc1` [Example 1089] belongs 7.45; to `Cc1nn(Cc2ccc(F)cc2)c(C)c1NC(=O)c1cc(C(F)(F)F)nc2ccc(C#N)cc12` [Example 103, 6-cyano-N-[1-(4-fluorobenzyl)-3,5-dimethyl-1H-pyrazol-4-yl]-2-(trifluoromethyl)quinoline-4-carboxamide], 6.34; to `Cc1nn(Cc2ccc(C(=O)NCC3CC3(F)F)cc2)c(C)c1NC(=O)c1cc(C(F)(F)F)nc2ccc(Br)cc12` (centres unmarked) [Example 1123], 7.15.
To `COc1ccc(Cn2nc(C)c(NC(=O)c3cc(C(F)(F)F)nc4c(Cl)cc(Cl)cc34)c2C)cc1` [Example 8, 6,8-dichloro-N-[1-(4-methoxybenzyl)-3,5-dimethyl-1H-pyrazol-4-yl]-2-(trifluoromethyl)quinoline-4-carboxamide] belongs 8.27.
To `Cc1c(NC(=O)c2cc(S(C)=NC#N)nc3ccccc23)c(C(F)(F)F)nn1Cc1ccc(C#N)cc1` (racemic) [Example 385, (±)-N-[1-(4-cyanobenzyl)-5-methyl-3-(trifluoromethyl)-1H-pyrazol-4-yl]-2-(N-cyano-S-methylsulfinimidoyl)quinoline-4-carboxamide] belongs 7.09; to `Cc1c(NC(=O)c2cc(C(N)=O)nc3ccccc23)c(C(F)(F)F)nn1Cc1ccc(CC#N)cc1` [Example 1592], 8.89.
In the case of `Cc1nn(CC2CCN(S(=O)(=O)c3ccccc3)CC2)c(C)c1NC(=O)c1cc(C(N)=O)nc2ccccc12` [Example 1519], the pIC50 was 6.19.
As for `Cc1c(NC(=O)c2cc(C(F)(F)F)nc3c(Cl)cc(Cl)cc23)c(C(F)(F)F)nn1Cc1ccc(C#N)cc1` [Example 167, 6,8-dichloro-N-[1-(4-cyanobenzyl)-5-methyl-3-(trifluoromethyl)-1H-pyrazol-4-yl]-2-(trifluoromethyl)quinoline-4-carboxamide], the figure is 7.34; as for `Cc1c(NC(=O)c2cc(C(N)=O)nc3cccc(F)c23)c(C(F)(F)F)nn1Cc1ccc(C#N)cc1` [Example 249, N^4-[1-(4-cyanobenzyl)-5-methyl-3-(trifluoromethyl)-1H-pyrazol-4-yl]-5-fluoroquinoline-2,4-dicarboxamide], 9.00; as for `COc1cc(C#N)ccc1Cn1nc(C)c(NC(=O)c2cc(C(N)=O)nc3cc(F)ccc23)c1C` [Example 1649], 7.17.
As for `Cc1nn(Cc2ccc(S(C)(=O)=O)cc2)c(C)c1NC(=O)c1cc(C(N)=O)nc2cc(F)c(F)cc12` [Example 231, N^4-{3,5-dimethyl-1-[4-(methylsulfonyl)benzyl]-1H-pyrazol-4-yl}-6,7-difluoroquinoline-2,4-dicarboxamide], the figure is 8.24; as for `Cc1nn(Cc2ccc(F)c(F)c2)c(C)c1NC(=O)c1cc(C(N)=O)nc2cc(F)ccc12` [Example 1470], 8.55.
As for `Cc1nn(Cc2ccc(C(=O)O)cc2)c(C)c1NC(=O)c1cc(C(N)=O)nc2cc(F)ccc12` [Example 1423], the figure is 7.53.
As for `Cc1nn(CC2CCN(C(=O)OC(C)(C)C)CC2)c(C)c1NC(=O)c1cc(C(F)(F)F)nc2ccc(Br)cc12` [Example 1201], the pIC50 is 6.37.
As for `Cc1nn(CC2CCNCC2)c(C)c1NC(=O)c1cc(C(N)=O)nc2ccccc12` [Example 406, N^4-[3,5-dimethyl-1-(piperidin-4-ylmethyl)-1H-pyrazol-4-yl]quinoline-2,4-dicarboxamide], the figure is 5.82; as for `Cc1nn(Cc2ccc(C(=O)NC3CCCC3)cc2)c(C)c1NC(=O)c1cc(C(F)(F)F)nc2ccc(Br)cc12` [Example 1182], 6.62.
To `Cc1cc(Cn2nc(C(F)(F)F)c(NC(=O)c3cc(C(N)=O)nc4cccc(F)c34)c2C)ccc1C#N` [Example 1694] belongs 8.92.
As for `Cc1nn(Cc2ccc(C(=O)NCCN3CC4(CCS4(=O)=O)C3)cc2)c(C)c1NC(=O)c1cc(C(F)(F)F)nc2ccc(Br)cc12` [Example 1049], the figure is 7.93.
For `Cc1nn(C(C)c2ccc(C#N)cc2)c(C)c1NC(=O)c1cc(C(N)=O)nc2ccccc12` (racemic) [Example 329, (±)-N^4-{1-[1-(4-cyanophenyl)ethyl]-3,5-dimethyl-1H-pyrazol-4-yl}quinoline-2,4-dicarboxamide], the pIC50 is 8.96.
To `Cc1nn(Cc2ccc(F)c(F)c2)c(C)c1NC(=O)c1cc(C(C)C)nc2ccc(Br)cc12` [Example 129, 6-bromo-N-[1-(3,4-difluorobenzyl)-3,5-dimethyl-1H-pyrazol-4-yl]-2-(propan-2-yl)quinoline-4-carboxamide] belongs 8.39; to `Cc1nn(Cc2ccc(C(=O)N(C)CCO)cc2)c(C)c1NC(=O)c1cc(C(F)(F)F)nc2ccc(Br)cc12` [Example 1186], 6.56; to `Cc1c(NC(=O)c2cc(C(N)=O)nc3ccccc23)c(C(F)(F)F)nn1Cc1ccc(CC(F)(F)F)cc1` [Example 1717], 8.60.
As for `Cc1nn(CC(=O)Nc2cccc(C#N)c2)c(C)c1NC(=O)c1cc(C(N)=O)nc2ccccc12` [Example 1691], the figure is 6.25; as for `Cc1nn(Cc2ccccn2)c(C)c1NC(=O)c1cc(C(F)(F)F)nc2ccc(Br)cc12` [Example 70, 6-bromo-N-[3,5-dimethyl-1-(pyridin-2-ylmethyl)-1H-pyrazol-4-yl]-2-(trifluoromethyl)quinoline-4-carboxamide], 6.76.
To `Cc1ccc2nc(C)cc(C(=O)Nc3c(C)nn(Cc4ccc(F)cc4F)c3C)c2c1` [Example 96, N-[1-(2,4-difluorobenzyl)-3,5-dimethyl-1H-pyrazol-4-yl]-2,6-dimethylquinoline-4-carboxamide] belongs 6.46.
For `Cc1cc(F)ccc1Cn1nc(C(F)(F)F)c(NC(=O)c2cc(C(N)=O)nc3ccccc23)c1C` [Example 1713], the negative-log IC50 (pIC50) is 8.30.
As for `Cc1ccc2nc(C)cc(C(=O)Nc3c(C(F)(F)F)nn(Cc4ccc(C#N)cc4)c3C)c2c1` [Example 188, N-[1-(4-cyanobenzyl)-5-methyl-3-(trifluoromethyl)-1H-pyrazol-4-yl]-2,6-dimethylquinoline-4-carboxamide], the figure is 6.79.
To `Cc1nn(Cc2cccnc2)c(C)c1NC(=O)c1cc(C(F)(F)F)nc2ccc(Br)cc12` [Example 171, 6-bromo-N-[3,5-dimethyl-1-(pyridin-3-ylmethyl)-1H-pyrazol-4-yl]-2-(trifluoromethyl)quinoline-4-carboxamide] belongs 7.24; to `COc1cc(C(=O)Nc2c(C)nn(Cc3ccc(F)cc3F)c2C)c2ccccc2n1` [Example 17, N-[1-(2,4-difluorobenzyl)-3,5-dimethyl-1H-pyrazol-4-yl]-2-methoxyquinoline-4-carboxamide], 7.91.
Take `Cc1nn(Cc2ccc(C(=O)NC3CCNC3=O)cc2)c(C)c1NC(=O)c1cc(C(F)(F)F)nc2ccc(Br)cc12` (racemic) [Example 1166]: the pIC50 is 6.77.
As for `Cc1nn(Cc2cccc(C#N)n2)c(C)c1NC(=O)c1cc(C(N)=O)nc2cccc(F)c12` [Example 1709], the figure is 7.55; as for `Cc1nn(Cc2ccc(C(=O)NCC3CC3)cc2)c(C)c1NC(=O)c1cc(C(F)(F)F)nc2ccc(Br)cc12` [Example 1079], 7.61.
